This note sets out measurements from ChEMBL document CHEMBL3526130, “An evaluation of using rat-derived single-dose neuropharmacokinetic parameters to project accurately large animal unbound brain drug concentrations” (Drug Metab Dispos, 2012).

Series [1] in a line: AUC(0 to 7 hrs) in Sprague-Dawley rat cerebrospinal fluid at 10 mg/kg, sc by LC-MS/MS analysis. The format is ADME, organism-based. Set-up: time < 7 hr, dose 10 mg/kg, route subcutaneous.
The nature of series [2]: AUC(0 to infinity) in Sprague-Dawley rat cerebrospinal fluid at 10 mg/kg, sc by LC-MS/MS analysis. The format is ADME, organism-based. Set-up: time infinity, dose 10 mg/kg, route subcutaneous.
A short description of series [3]: Ratio of unbound brain concentration to drug level in cerebrospinal fluid in Sprague-Dawley rat at 10 mg/kg, sc by LC-MS/MS analysis. Format: ADME, organism-based. Set-up: dose 10 mg/kg, route subcutaneous. To be noted: in vivo.
A short description of series [4]: AUC(0 to 7 hrs) in Sprague-Dawley rat plasma at 10 mg/kg, sc by LC-MS/MS analysis. Set-up: time < 7 hr, dose 10 mg/kg, route subcutaneous. The format is ADME, organism-based.
Series [5] can be described thus: AUC(0 to infinity) in Sprague-Dawley rat plasma at 10 mg/kg, sc by LC-MS/MS analysis. The format is ADME, organism-based. Set-up: dose 10 mg/kg, route subcutaneous, time infinity.
Series [6] is described as follows: AUC(0 to infinity) in Sprague-Dawley rat brain at 10 mg/kg, sc by LC-MS/MS analysis. The format is ADME, organism-based. Also noted: time infinity, dose 10 mg/kg, route subcutaneous.
A short description of series [7]: Ratio of drug level in brain to plasma in Sprague-Dawley rat at 10 mg/kg, sc by LC-MS/MS analysis. The format is ADME, organism-based. Set-up: dose 10 mg/kg, route subcutaneous. The conditions noted are these: read-out: BPR.
Series [8] can be described thus: Ratio of unbound drug level in brain to plasma in Sprague-Dawley rat at 10 mg/kg, sc by LC-MS/MS analysis. Also noted: dose 10 mg/kg, route subcutaneous. Format: ADME, organism-based.
Series [9] in a line: AUC(0 to 7 hrs) in Sprague-Dawley rat brain at 10 mg/kg, sc by LC-MS/MS analysis. Set-up: time < 7 hr, dose 10 mg/kg, route subcutaneous. Format: ADME, organism-based.
Series [10] is described as follows: AUC(0 to 2 hrs) in Sprague-Dawley rat cerebrospinal fluid treated with risperidone at 1 mg/kg, sc by LC-MS/MS analysis. The format is ADME, organism-based. Set-up: time < 2 hr, dose 1 mg/kg, route subcutaneous.
The nature of series [11]: AUC(0 to 2 hrs) in Beagle dog plasma treated with risperidone at 0.1 mg/kg, sc by LC-MS/MS analysis. Format: ADME, organism-based, Canis lupus familiaris. Set-up: time < 2 hr, dose 0.1 mg/kg, route subcutaneous.
The nature of series [12]: Ratio of unbound drug level in brain to plasma in Beagle dog treated with risperidone at 0.1 mg/kg, sc by LC-MS/MS analysis. Format: ADME, organism-based, Canis lupus familiaris. Also noted: dose 0.1 mg/kg, route subcutaneous. The conditions noted are these: brain and plasma.
A short description of series [13]: AUC(0 to 2 hrs) in Sprague-Dawley rat plasma treated with risperidone at 1 mg/kg, sc by LC-MS/MS analysis. Also noted: time < 2 hr, dose 1 mg/kg, route subcutaneous. Format: ADME, organism-based.
Series [14] in a line: AUC(0 to 1 hr) in cynomolgus monkey cerebrospinal fluid treated with risperidone at 0.1 mg/kg, sc by LC-MS/MS analysis. Also noted: time < 1 hr, dose 0.1 mg/kg, route subcutaneous. Format: ADME, organism-based, Macaca fascicularis.
Series [15] can be described thus: Ratio of unbound brain concentration to drug level in cerebrospinal fluid in cynomolgus monkey treated with risperidone at 0.1 mg/kg, sc by LC-MS/MS analysis. To be noted: in vivo. Set-up: dose 0.1 mg/kg, route subcutaneous. Format: ADME, organism-based, Macaca fascicularis.
A short description of series [16]: AUC(0 to infinity) in Sprague-Dawley rat cerebrospinal fluid treated with risperidone at 1 mg/kg, sc by LC-MS/MS analysis. The format is ADME, organism-based. Also noted: time infinity, dose 1 mg/kg, route subcutaneous.
Series [17] can be described thus: Ratio of drug level in brain to plasma in cynomolgus monkey treated with risperidone at 0.1 mg/kg, sc by LC-MS/MS analysis. The format is ADME, organism-based, Macaca fascicularis. Also noted: dose 0.1 mg/kg, route subcutaneous. The conditions noted are these: brain and plasma, read-out: BPR.
Series [18] can be described thus: Ratio of unbound brain concentration to drug level in cerebrospinal fluid in Beagle dog treated with risperidone at 0.1 mg/kg, sc by LC-MS/MS analysis. The format is ADME, organism-based, Canis lupus familiaris. Set-up: dose 0.1 mg/kg, route subcutaneous. The conditions noted are these: in vivo.
Series [19] can be described thus: Ratio of unbound brain concentration to drug level in cerebrospinal fluid in Sprague-Dawley rat treated with risperidone at 1 mg/kg, sc by LC-MS/MS analysis. Format: ADME, organism-based. Also noted: dose 1 mg/kg, route subcutaneous. The conditions noted are these: in vivo.
Series [20] can be described thus: Unbound fraction in cynomolgus monkey plasma treated with risperidone at 0.1 mg/kg, sc by LC-MS/MS analysis. The format is ADME, organism-based, Macaca fascicularis. Set-up: dose 0.1 mg/kg, route subcutaneous.
Series [21] can be described thus: AUC(0 to 1 hr) in cynomolgus monkey brain treated with risperidone at 0.1 mg/kg, sc by LC-MS/MS analysis. The format is ADME, organism-based, Macaca fascicularis. Also noted: time < 1 hr, dose 0.1 mg/kg, route subcutaneous.
Series [22] can be described thus: AUC(0 to infinity) in Sprague-Dawley rat plasma treated with risperidone at 1 mg/kg, sc by LC-MS/MS analysis. Also noted: time infinity, dose 1 mg/kg, route subcutaneous. The format is ADME, organism-based.
Series [23] is described as follows: AUC(0 to 1 hr) in cynomolgus monkey plasma treated with risperidone at 0.1 mg/kg, sc by LC-MS/MS analysis. The format is ADME, organism-based, Macaca fascicularis. Also noted: time < 1 hr, dose 0.1 mg/kg, route subcutaneous.
Series [24] can be described thus: Unbound fraction in Beagle dog brain treated with risperidone at 0.1 mg/kg, sc by LC-MS/MS analysis. Format: ADME, organism-based, Canis lupus familiaris. Set-up: dose 0.1 mg/kg, route subcutaneous.
Series [25] in a line: Ratio of drug level in brain to plasma in Beagle dog treated with risperidone at 0.1 mg/kg, sc by LC-MS/MS analysis. Format: ADME, organism-based, Canis lupus familiaris. Also noted: dose 0.1 mg/kg, route subcutaneous. To be noted: brain and plasma, read-out: BPR.
Series [26] is described as follows: AUC(0 to 2 hrs) in Beagle dog brain treated with risperidone at 0.1 mg/kg, sc by LC-MS/MS analysis. Set-up: time < 2 hr, dose 0.1 mg/kg, route subcutaneous. Format: ADME, organism-based, Canis lupus familiaris.
A short description of series [27]: Unbound fraction in cynomolgus monkey brain treated with risperidone at 0.1 mg/kg, sc by LC-MS/MS analysis. Format: ADME, organism-based, Macaca fascicularis. Set-up: dose 0.1 mg/kg, route subcutaneous.
The nature of series [28]: Ratio of unbound drug level in brain to plasma in Sprague-Dawley rat treated with risperidone at 1 mg/kg, sc by LC-MS/MS analysis. Format: ADME, organism-based. Also noted: dose 1 mg/kg, route subcutaneous.
A short description of series [29]: Unbound fraction in Beagle dog plasma treated with risperidone at 0.1 mg/kg, sc by LC-MS/MS analysis. The format is ADME, organism-based, Canis lupus familiaris. Set-up: dose 0.1 mg/kg, route subcutaneous.
Series [30] can be described thus: AUC(0 to 2 hrs) in Beagle dog cerebrospinal fluid treated with risperidone at 0.1 mg/kg, sc by LC-MS/MS analysis. Format: ADME, organism-based, Canis lupus familiaris. Set-up: time < 2 hr, dose 0.1 mg/kg, route subcutaneous.
Series [31] in a line: AUC(0 to infinity) in Sprague-Dawley rat brain treated with risperidone at 1 mg/kg, sc by LC-MS/MS analysis. Format: ADME, organism-based. Set-up: time infinity, dose 1 mg/kg, route subcutaneous.
Series [32] can be described thus: AUC(0 to 2 hrs) in Sprague-Dawley rat brain treated with risperidone at 1 mg/kg, sc by LC-MS/MS analysis. Format: ADME, organism-based. Also noted: time < 2 hr, dose 1 mg/kg, route subcutaneous.
The nature of series [33]: Ratio of drug level in brain to plasma in Sprague-Dawley rat treated with risperidone at 1 mg/kg, sc by LC-MS/MS analysis. Set-up: dose 1 mg/kg, route subcutaneous. To be noted: read-out: BPR. The format is ADME, organism-based.
For another series, the system named is Nucleic Acid. As to the kind of experiment: Ratio of drug level in cerebrospinal fluid to unbound plasma concentration in Sprague-Dawley rat treated with risperidone at 1 mg/kg, sc by LC-MS/MS analysis. The format is ADME, organism-based. Also noted: dose 1 mg/kg, route subcutaneous. The conditions noted are these: in vivo.
Series [34] is described as follows: Ratio of unbound drug level in brain to plasma in cynomolgus monkey treated with risperidone at 0.1 mg/kg, sc by LC-MS/MS analysis. Format: ADME, organism-based, Macaca fascicularis. Set-up: dose 0.1 mg/kg, route subcutaneous. The conditions noted are these: brain and plasma.

The AUC(0-t) is exposure summed from dosing to a finite time, without extrapolation to infinity. What is called AUC(0-inf) is the area under the concentration-time curve extrapolated to infinity. In the case of `CN(C)CCCC1(c2ccc(F)cc2)OCc2cc(C#N)ccc21` (racemic) [CITALOPRAM], the AUC(0-t) at 7 h in series [1] turned out to be 0.401 µg·h/mL; in series [4], 0.93 µg·h/mL; in series [9], 12.5 µg·h/mL. The values for the AUC(0-inf) in [2], in series [5] and in series [6] were 0.421 µg·h/mL, 0.958 µg·h/mL and 12.9 µg·h/mL, respectively. Also, the Ratio in [3] came out at 0.89. Further, the Kp in series [7] was found to be 13.4. For the same compound, in [8], the Kp uu stood at 1.08.
A word on the fraction unbound: it is the share of the substance not bound to proteins or other matrix. Consider `Cc1nc2n(c(=O)c1CCN1CCC(c3noc4cc(F)ccc34)CC1)CCCC2O` (stereo not given) [PALIPERIDONE], for which the exposure AUC(0-t) at 2 h in series [10] came to 0.00328 µg·h/mL; in series [11], 0.0774 µg·h/mL; in [13], 0.184 µg·h/mL; in series [26] it was 0.0471 µg·h/mL; in series [30], 0.00627 µg·h/mL; in series [32], 0.0135 µg·h/mL. For the same compound, the values for the Kp uu in series [12], in [28] and in [34] were 0.27, 0.04 and 0.19, respectively. Besides, the AUC(0-t) at 1 h in [14] came to 0.00254 µg·h/mL; in [21], 0.0248 µg·h/mL; in series [23] it was 0.076 µg·h/mL. The Ratio in series [15] came to 1.03; in series [18] it was 0.68; in [19], 0.31; in the series with Nucleic Acid, 0.14. Besides, the AUC(0-inf) in series [16] came to 0.0122 µg·h/mL; in series [22], 0.342 µg·h/mL; in series [31], 0.069 µg·h/mL. The Kp in series [17] turned out to be 0.33; in series [25], 0.61; in series [33], 0.07. The fraction unbound in series [20] stood at 0.185; in series [24], 0.0903; in series [27] it was 0.105; in [29], 0.203.
